Source: ChEMBL document CHEMBL5236633, “Multi-therapies Based on PARP Inhibition: Potential Therapeutic Approaches for Cancer Treatment” (J Med Chem, 2022)
Values belong to the molecule of their own block, whether it stands above or below them.

Key:
MDA-MB-231 [1] = assay: Antiproliferative activity against human MDA-MB-231 cells assessed as cell growth inhibition incubated for 24 hrs by CCK-8 assay; format: functional, cell-based; settings: MDA-MB-231, 24 h
[2] = target: Protein cereblon/Poly [ADP-ribose] polymerase 1 (Homo sapiens, UniProt P09874+Q96SW2); assay: Protac activity at CRBN/PARP1 in human HeLa cells assessed as induction of PARP-1 degradation measured after 24 hrs by immunoblotting analysis; format: cell-based
Sequence of Protein cereblon/Poly [ADP-ribose] polymerase 1 (P09874 whole entry): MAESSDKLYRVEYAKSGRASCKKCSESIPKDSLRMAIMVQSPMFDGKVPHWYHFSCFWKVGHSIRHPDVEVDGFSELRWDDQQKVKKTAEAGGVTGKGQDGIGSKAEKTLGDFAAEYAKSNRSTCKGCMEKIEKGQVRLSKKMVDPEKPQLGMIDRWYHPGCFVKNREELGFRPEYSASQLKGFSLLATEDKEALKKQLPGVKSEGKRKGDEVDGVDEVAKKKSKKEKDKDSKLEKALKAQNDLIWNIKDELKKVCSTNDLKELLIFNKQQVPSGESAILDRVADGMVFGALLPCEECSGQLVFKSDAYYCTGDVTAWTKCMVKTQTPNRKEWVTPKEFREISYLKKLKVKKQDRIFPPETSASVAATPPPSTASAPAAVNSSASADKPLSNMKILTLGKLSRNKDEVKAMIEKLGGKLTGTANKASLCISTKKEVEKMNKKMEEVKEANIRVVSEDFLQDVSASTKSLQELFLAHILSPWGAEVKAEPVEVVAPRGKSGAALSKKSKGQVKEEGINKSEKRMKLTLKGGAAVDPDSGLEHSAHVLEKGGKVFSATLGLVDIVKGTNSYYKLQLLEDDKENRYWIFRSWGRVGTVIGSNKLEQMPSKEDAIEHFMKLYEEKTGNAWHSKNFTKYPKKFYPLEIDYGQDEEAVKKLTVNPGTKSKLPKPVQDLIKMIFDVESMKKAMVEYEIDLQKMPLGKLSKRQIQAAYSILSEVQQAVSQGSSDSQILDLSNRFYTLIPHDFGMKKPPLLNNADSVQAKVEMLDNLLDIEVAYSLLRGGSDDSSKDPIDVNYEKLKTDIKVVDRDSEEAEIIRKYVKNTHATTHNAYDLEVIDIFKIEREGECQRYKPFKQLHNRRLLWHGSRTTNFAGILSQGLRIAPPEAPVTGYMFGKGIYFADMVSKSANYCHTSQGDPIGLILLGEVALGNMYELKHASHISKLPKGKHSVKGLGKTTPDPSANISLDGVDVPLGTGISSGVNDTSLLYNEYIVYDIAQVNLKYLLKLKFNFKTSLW
Sequence of Protein cereblon/Poly [ADP-ribose] polymerase 1 (Q96SW2 whole entry): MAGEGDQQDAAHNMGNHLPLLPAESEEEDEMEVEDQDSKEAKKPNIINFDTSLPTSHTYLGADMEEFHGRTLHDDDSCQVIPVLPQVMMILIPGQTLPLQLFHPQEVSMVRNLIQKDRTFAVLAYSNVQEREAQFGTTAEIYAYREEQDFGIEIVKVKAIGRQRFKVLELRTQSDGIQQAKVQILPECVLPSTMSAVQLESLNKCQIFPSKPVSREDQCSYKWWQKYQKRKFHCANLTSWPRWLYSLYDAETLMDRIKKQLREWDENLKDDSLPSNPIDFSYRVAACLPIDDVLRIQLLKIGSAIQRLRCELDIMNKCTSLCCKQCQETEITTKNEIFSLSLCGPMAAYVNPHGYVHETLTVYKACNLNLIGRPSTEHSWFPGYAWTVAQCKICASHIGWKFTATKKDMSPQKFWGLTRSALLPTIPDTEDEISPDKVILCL

[3] = target: T1, Poly [ADP-ribose] polymerase 1 (Homo sapiens, UniProt P09874); assay: Inhibition of PARP1 (unknown origin) incubated for 30 mins by fluorescence based analysis
T1 sequence (P09874 whole entry): as the sequence (P09874 whole entry) above

[4] = target: T1, Poly [ADP-ribose] polymerase 1; assay: Inhibition of PARP1 (unknown origin)
A549 [5] = assay: Antiproliferative activity against human A549 cells assessed as cell growth inhibition; format: functional, cell-based
A549 [6] = assay: Antiproliferative activity against human A549 cells assessed as cell growth inhibition measured after 24 hrs by MTT assay; format: functional, cell-based; settings: A549, 24 h
[7] = target: Epidermal growth factor receptor (Homo sapiens, UniProt P00533); assay: Inhibition of EGFR (unknown origin)
Sequence of Epidermal growth factor receptor (P00533 whole entry): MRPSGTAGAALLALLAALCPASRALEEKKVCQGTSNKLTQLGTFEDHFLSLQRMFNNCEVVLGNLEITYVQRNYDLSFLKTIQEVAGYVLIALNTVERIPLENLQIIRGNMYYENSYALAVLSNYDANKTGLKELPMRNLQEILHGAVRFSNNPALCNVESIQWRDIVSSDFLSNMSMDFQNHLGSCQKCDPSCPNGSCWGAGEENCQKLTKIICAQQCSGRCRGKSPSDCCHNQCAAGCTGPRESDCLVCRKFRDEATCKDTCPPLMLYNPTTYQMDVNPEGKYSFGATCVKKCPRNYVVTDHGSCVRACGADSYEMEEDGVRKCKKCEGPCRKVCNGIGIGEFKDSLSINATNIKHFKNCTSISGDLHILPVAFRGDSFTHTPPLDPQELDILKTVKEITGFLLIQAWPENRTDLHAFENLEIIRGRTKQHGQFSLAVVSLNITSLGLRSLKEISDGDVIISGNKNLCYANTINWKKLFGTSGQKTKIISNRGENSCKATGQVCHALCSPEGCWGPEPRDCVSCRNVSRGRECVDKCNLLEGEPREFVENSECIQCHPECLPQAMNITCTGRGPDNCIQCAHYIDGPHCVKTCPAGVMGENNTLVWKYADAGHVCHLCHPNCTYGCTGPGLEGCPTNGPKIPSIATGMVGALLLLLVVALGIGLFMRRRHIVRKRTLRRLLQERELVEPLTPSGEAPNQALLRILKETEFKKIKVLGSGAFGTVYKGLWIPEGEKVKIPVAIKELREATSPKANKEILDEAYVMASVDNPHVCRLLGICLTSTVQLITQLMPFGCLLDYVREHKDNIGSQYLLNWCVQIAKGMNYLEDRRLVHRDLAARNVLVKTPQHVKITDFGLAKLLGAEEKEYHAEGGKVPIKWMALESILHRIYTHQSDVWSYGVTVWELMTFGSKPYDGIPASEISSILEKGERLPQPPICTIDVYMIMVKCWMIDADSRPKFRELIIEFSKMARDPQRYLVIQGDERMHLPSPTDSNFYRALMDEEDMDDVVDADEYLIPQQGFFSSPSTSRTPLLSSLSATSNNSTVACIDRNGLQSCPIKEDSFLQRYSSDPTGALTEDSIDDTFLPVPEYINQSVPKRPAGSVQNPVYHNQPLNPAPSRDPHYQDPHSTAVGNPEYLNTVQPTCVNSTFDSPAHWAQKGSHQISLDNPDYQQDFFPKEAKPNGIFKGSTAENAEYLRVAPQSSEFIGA

MDA-MB-436 = assay: Antiproliferative activity against human BRCA1 -/- MDA-MB-436 cells assessed as cell growth inhibition; format: functional, cell-based
[8] = target: T2, Protein mono-ADP-ribosyltransferase PARP16 (Homo sapiens, UniProt Q8N5Y8); assay: Inhibition of PARP16 (unknown origin)
T2 sequence (Q8N5Y8 whole entry): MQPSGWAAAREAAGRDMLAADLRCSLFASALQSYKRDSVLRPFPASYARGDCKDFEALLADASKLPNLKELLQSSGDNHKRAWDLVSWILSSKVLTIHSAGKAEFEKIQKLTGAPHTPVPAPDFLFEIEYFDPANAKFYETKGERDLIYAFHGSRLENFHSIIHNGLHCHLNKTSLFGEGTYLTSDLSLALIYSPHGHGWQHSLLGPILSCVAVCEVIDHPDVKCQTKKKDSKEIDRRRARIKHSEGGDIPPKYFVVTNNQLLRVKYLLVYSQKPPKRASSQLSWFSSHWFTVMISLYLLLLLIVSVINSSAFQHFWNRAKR

[9] = target: T3, Protein mono-ADP-ribosyltransferase PARP3 (Homo sapiens, UniProt Q9Y6F1); assay: Inhibition of PARP3 (unknown origin)
T3 sequence (Q9Y6F1 whole entry): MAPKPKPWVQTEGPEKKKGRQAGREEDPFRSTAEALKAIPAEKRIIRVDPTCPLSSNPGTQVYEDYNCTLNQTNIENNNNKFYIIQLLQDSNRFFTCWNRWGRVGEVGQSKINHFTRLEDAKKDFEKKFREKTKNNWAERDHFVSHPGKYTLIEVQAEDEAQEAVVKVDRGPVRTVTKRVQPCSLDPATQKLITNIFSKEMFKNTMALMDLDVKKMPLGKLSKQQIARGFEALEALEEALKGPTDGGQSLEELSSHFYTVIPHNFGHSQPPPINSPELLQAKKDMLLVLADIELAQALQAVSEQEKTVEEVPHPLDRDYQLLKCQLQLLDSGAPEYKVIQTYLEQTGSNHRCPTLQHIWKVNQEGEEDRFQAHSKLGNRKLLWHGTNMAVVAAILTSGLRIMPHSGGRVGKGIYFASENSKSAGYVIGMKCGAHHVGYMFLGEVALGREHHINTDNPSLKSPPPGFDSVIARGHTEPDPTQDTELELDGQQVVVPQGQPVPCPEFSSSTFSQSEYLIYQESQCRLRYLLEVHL

MDA-MB-231 [10] = assay: Antiproliferative activity against human MDA-MB-231 cells assessed as cell growth inhibition at 10 uM incubated for 24 hrs by CCK-8 assay relative to control; format: functional; design: scale not given: the % may be the effect or the level left
MDA-MB-231 [11] = assay: Antiproliferative activity against human MDA-MB-231 cells assessed as cell growth inhibition incubated for 24 hrs in presence of nutlin-3 by CCK-8 assay; settings: MDA-MB-231, 24 h

IC50 (MDA-MB-231 [1]): 28500 nM
SMILES: COc1ccc(C2=NC(c3ccc(Cl)cc3)C(c3ccc(Cl)cc3)N2C(=O)N2CCNC(=O)C2)c(OC(C)C)c1 (centres undefined)

DC50 [2]: 36 nM
SMILES: CN(CCOCCOCCOCCOCCOCCOCCNc1cccc2c1C(=O)N(C1CCC(=O)NC1=O)C2=O)Cc1ccc(-c2[nH]c3cc(F)cc4c3c2CCNC4=O)cc1 (centres undefined)

IC50 [3]: 36 nM
SMILES: O=C(c1ccc(Cc2n[nH]c(=O)c3cccnc23)cc1)N1CCCC1

IC50 [4]: 14.4 nM | IC50 (A549 [5]): 230 nM
SMILES: O=C1CN(Cc2cn(-c3ccccc3F)nn2)C2(CCCCC2)c2ccccc21

IC50 (A549 [6]): 2010 nM | IC50 [4]: 19.9 nM
SMILES: O=C1CCc2cc(-c3ccccc3F)ccc2C2(CCCCC2)N1

IC50 [4]: 1.37 nM | IC50 [7]: 64.7 nM
SMILES: Cc1nnc2n1N=C(c1ccccc1OCCNCCCNCCOc1ccccc1C1=Nn3c(C)nnc3SC1)CS2

IC50 [3]: 25 nM | IC50 (MDA-MB-436): 1000 nM
SMILES: CC(c1nc2cccc(C(N)=O)c2[nH]1)N1CC(=O)N(c2cccc(C(F)(F)F)c2)C1=S (centres undefined)

IC50 (A549 [5]): 1890 nM
SMILES: O=C1CCN(Cc2cn(-c3ccccc3F)nn2)C2(CCCCC2)c2ccccc21

IC50 [8]: 362 nM | IC50 [9]: 74100 nM
SMILES: O=C1NCC(c2ccccn2)[C@@H](O)c2cc(Cl)c(Cl)cc21 (some centres undefined)

IC50 (MDA-MB-231 [1]): 8450 nM
SMILES: COc1ccc(C2=N[C@H](c3ccc(Cl)cc3)[C@H](c3ccc(Cl)cc3)N2C(=O)N2CCN(CC(=O)NCCOCCOCCOCCOCCn3cc(-c4ccc(-n5cc6cccc(C(N)=O)c6n5)cc4)nn3)C(=O)C2)c(OC(C)C)c1
Activity (MDA-MB-231 [10]): 70%

IC50 [4]: 198 nM
SMILES: O=c1cc(-c2ccc(O)c(-c3c(O)cc(O)c4c(=O)cc(-c5ccc(O)cc5)oc34)c2)oc2cc(O)cc(O)c12 [AMENTOFLAVONE]

IC50 (MDA-MB-231 [11]): 60900 nM | IC50 (MDA-MB-231 [1]): 33200 nM
SMILES: NC(=O)c1cccc2cn(-c3ccc([C@@H]4CCCNC4)cc3)nc12 [NIRAPARIB]
